Experiments:
PDE IV = experiment: Inhibition of PDE4 activity (method of Bauer and Schwabe, microtiter plates); format: biochemical
Text: The activity test can be carried out, for example, according to the method of Bauer and Schwabe. For this, the method is adapted to microtiter plates (Naunyn-Schmiedeberg's Arch. Pharmacol. 1980, 311, 193-198). The PDE reaction takes place in the first step here. In a second step, the resulting 5′-nucleotide is cleaved by a 5′-nucloetidase of the snake venom of Crotalus atrox to the uncharged nucleoside. In the third step, the nucleoside is separated from the remaining charged substrate on ion-exchange columns. The columns are eluted directly into minivials, into which 2 ml of scintillator fluid are additionally added for counting, using 2 ml of 30 mM ammonium formate (pH 6.0).

melting point: 229 to 231 °C
SMILES: COc1cc2c(cc1OC)[C@@H]1CCCC[C@@H]1[N+]([O-])=C2c1ccc(S(C)(=O)=O)cc1 [Compound 1, (−)-cis-8,9-Dimethoxy-6-(4-methanesulfonylphenyl)-1,2,3,4,4a,10b-hexahydrophenanthridine-N-oxide]
-log IC50 (PDE IV): 6.09

— patent US6630483B2, “Phenanthridine-N-oxides” (Altana Pharma AG, priority 2000, dated 2003)
